Test systems include PC-3 prostate; SF-268 CNS; HCT-15 colon; HCC-2998 colon; BT-549 breast; NCI-H226 lung; MCF7 breast; SK-MEL-5 melanoma; COLO 205 colon; KM12 colon; OVCAR-4 ovarian; SF-295 CNS; HS 578T breast; SK-OV-3 ovarian; HOP-92 NSCLC; OVCAR-3 ovarian; A498 renal; HOP-62 NSCLC; LOX IMVI melanoma; SR leukemia.
Assay in all cases: growth of human tumour cells (NCI), 48 h

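Following 48 hours of exposure in 96-well plates, responses at five concentrations were used to interpolate endpoints linearly. At the TGI there is no net growth.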

Turning to `NCCCCN(CCCN)C(=O)c1ccccc1`, the TGI in the test with PC-3 prostate, with SF-268 CNS, in the test on HCT-15 colon, with HCC-2998 colon, with BT-549 breast and in the test on NCI-H226 lung was over 100 µM in each case. Besides, the TGI in the test with MCF7 breast, in the test with SK-MEL-5 melanoma, in the test with COLO 205 colon, with KM12 colon, in the test on OVCAR-4 ovarian and in the test with SF-295 CNS was over 100 µM throughout. The TGI in the test on HS 578T breast, with SK-OV-3 ovarian, with HOP-92 NSCLC, with OVCAR-3 ovarian, with A498 renal and in the test with HOP-62 NSCLC was over 100 µM each time.
In the case of `O=C1c2ccccc2-c2c1c(-c1ccc([N+](=O)[O-])cc1)nc1ccc3ccccc3c21`, the TGI with PC-3 prostate, in the test with SF-268 CNS, in the test with HCT-15 colon, in the test with HCC-2998 colon, with BT-549 breast and in the test with NCI-H226 lung was over 100 µM throughout. Further, the TGI in the test on MCF7 breast, in the test with COLO 205 colon, in the test with KM12 colon, in the test with OVCAR-4 ovarian, in the test with SF-295 CNS and in the test on HS 578T breast was over 100 µM each time. Moreover, the TGI with SK-OV-3 ovarian, with OVCAR-3 ovarian, in the test with A498 renal and with HOP-62 NSCLC was over 100 µM in each case.
On to `O=C1C(C(c2ccccc2)N2CCOCC2)=C(O)C(c2ccccc2)N1c1ccccc1` (stereo not given), for which the TGI in the test with LOX IMVI melanoma, in the test with PC-3 prostate, with SF-268 CNS, in the test with HCT-15 colon, in the test on HCC-2998 colon and in the test with BT-549 breast was over 10 µM in each case. The TGI in the test on NCI-H226 lung, in the test with MCF7 breast, in the test on SK-MEL-5 melanoma, in the test on COLO 205 colon, with KM12 colon and in the test on SF-295 CNS was over 10 µM each time. The TGI in the test with HS 578T breast, in the test on SK-OV-3 ovarian, in the test with OVCAR-3 ovarian, in the test with A498 renal and in the test on HOP-62 NSCLC was over 10 µM throughout.
In the case of `CN(Cc1cnc2nc(N)nc(N)c2n1)c1ccc(C(=O)NCS(=O)(=O)O)cc1`, the TGI with LOX IMVI melanoma, in the test with PC-3 prostate, with SF-268 CNS, in the test on HCT-15 colon, in the test with HCC-2998 colon and with BT-549 breast was over 100 µM each time. Besides, the TGI in the test with NCI-H226 lung, with MCF7 breast, with SK-MEL-5 melanoma, in the test on COLO 205 colon, in the test on KM12 colon and with OVCAR-4 ovarian was over 100 µM throughout. Also, the TGI in the test on SF-295 CNS, in the test with HS 578T breast, with SK-OV-3 ovarian, in the test on HOP-92 NSCLC, in the test on OVCAR-3 ovarian and in the test on A498 renal was over 100 µM throughout. This compound gave a TGI with HOP-62 NSCLC of over 100 µM.
Take `COC(=O)[C@]12CSC[C@H]1C[C@H](c1ccccc1OC)N2`: the TGI in the test on LOX IMVI melanoma, in the test on PC-3 prostate, in the test with SF-268 CNS, with HCT-15 colon, in the test on HCC-2998 colon and in the test with BT-549 breast was over 100 µM each time. Also, the TGI in the test with NCI-H226 lung, in the test on MCF7 breast, in the test on SK-MEL-5 melanoma, in the test on COLO 205 colon, in the test with KM12 colon and in the test on OVCAR-4 ovarian was over 100 µM in each case. Moreover, the TGI in the test with SF-295 CNS, in the test with SK-OV-3 ovarian, with OVCAR-3 ovarian, with A498 renal, with HOP-62 NSCLC and with SR leukemia was over 100 µM throughout.
With `CCOP(=O)(OCC)C(N)Cc1ccc(OC)c(OC)c1` (stereo not given), the TGI in the test with PC-3 prostate, in the test with SF-268 CNS, in the test on HCT-15 colon, in the test on HCC-2998 colon, in the test on BT-549 breast and in the test with NCI-H226 lung was over 100 µM in each case. Besides, the TGI with MCF7 breast, in the test with SK-MEL-5 melanoma, in the test on COLO 205 colon, in the test on KM12 colon, in the test with OVCAR-4 ovarian and in the test with SF-295 CNS was over 100 µM in each case. Also, the TGI in the test on HOP-92 NSCLC, in the test on OVCAR-3 ovarian, in the test on A498 renal and with SR leukemia was over 100 µM each time.
In the case of `CSC1=NC(C(N)=O)C(N)N1C` (stereo not given), the TGI in the test with LOX IMVI melanoma, in the test on PC-3 prostate, in the test on SF-268 CNS, with HCT-15 colon, in the test on BT-549 breast and with NCI-H226 lung was over 100 µM each time. For the same compound, the TGI in the test on SK-MEL-5 melanoma, with COLO 205 colon, with KM12 colon, with OVCAR-4 ovarian, with SF-295 CNS and in the test with HS 578T breast was over 100 µM throughout. The TGI in the test on SK-OV-3 ovarian, with HOP-92 NSCLC, with OVCAR-3 ovarian, in the test with A498 renal, in the test on HOP-62 NSCLC and in the test on SR leukemia was over 100 µM throughout.
As to `CCC(=O)N1NC(=O)C(CC)(CC)C1=O`, the TGI in the test on LOX IMVI melanoma, in the test with PC-3 prostate, with SF-268 CNS, with HCT-15 colon, in the test on HCC-2998 colon and with BT-549 breast was over 100 µM in each case. In addition, the TGI in the test with NCI-H226 lung, with MCF7 breast, with SK-MEL-5 melanoma, in the test with COLO 205 colon, with KM12 colon and in the test with OVCAR-4 ovarian was over 100 µM each time. Moreover, the TGI in the test on SF-295 CNS, with HS 578T breast, in the test with SK-OV-3 ovarian, with OVCAR-3 ovarian, with HOP-62 NSCLC and with SR leukemia was over 100 µM in each case.

For the origin of these results see PubChem BioAssay (NCI).
